Results published in patent US6025330A, “Inhibitors of fibrin cross-linking and/or transglutaminases” (BioPharm Research & Development Ltd., priority 1995, dated 2000).
No end group written: not given here.

Assays:
human factor Xa = human factor Xa (Homo sapiens, UniProt P00742); test: factor Xa chromogenic substrate assay (S2765); assay type: biochemical; settings: 0.046 μg/ml
Procedure: (§1) The effect of Tridegin variant 1 purified as in Example 6 was tested on the coagulation enzyme, thrombin. with a chromogenic substrate assay. 1 mM S2238 was incubated in 50 mM Tris HCl pH 8.3 and the reaction was started by adding thrombin 0.15 U/ml final concentration. The reaction was monitored in a spectrophotometer at 405 nm.
The effect of the Tridegin purified as in Example 6 was tested on factor Xa. 2 mM S2765 was incubated in 50 mM Tris HCl pH 8.3 and the reaction was started by adding human factor Xa. The assay was performed as in Example 11. […] This confirms that, not only is the transglutaminase inhibitor different from previously known inhibitors of factor Xa, but the methods exemplified to purify the transglutaminase inhibitor successfully remove the factor Xa inhibitors.

[1] = molecular target: T1, human plasma factor XIIIa (Homo sapiens, UniProt P00488); test: production of ammonia from casein on ethylamine incorporation (glutamate dehydrogenase/NADH coupled); assay type: biochemical; settings: control 4.14
T1 construct: from tissue; host or cells: human plasma (defibrinogenated, not purified further)
T1 sequence (P00488 39-732 limits assumed): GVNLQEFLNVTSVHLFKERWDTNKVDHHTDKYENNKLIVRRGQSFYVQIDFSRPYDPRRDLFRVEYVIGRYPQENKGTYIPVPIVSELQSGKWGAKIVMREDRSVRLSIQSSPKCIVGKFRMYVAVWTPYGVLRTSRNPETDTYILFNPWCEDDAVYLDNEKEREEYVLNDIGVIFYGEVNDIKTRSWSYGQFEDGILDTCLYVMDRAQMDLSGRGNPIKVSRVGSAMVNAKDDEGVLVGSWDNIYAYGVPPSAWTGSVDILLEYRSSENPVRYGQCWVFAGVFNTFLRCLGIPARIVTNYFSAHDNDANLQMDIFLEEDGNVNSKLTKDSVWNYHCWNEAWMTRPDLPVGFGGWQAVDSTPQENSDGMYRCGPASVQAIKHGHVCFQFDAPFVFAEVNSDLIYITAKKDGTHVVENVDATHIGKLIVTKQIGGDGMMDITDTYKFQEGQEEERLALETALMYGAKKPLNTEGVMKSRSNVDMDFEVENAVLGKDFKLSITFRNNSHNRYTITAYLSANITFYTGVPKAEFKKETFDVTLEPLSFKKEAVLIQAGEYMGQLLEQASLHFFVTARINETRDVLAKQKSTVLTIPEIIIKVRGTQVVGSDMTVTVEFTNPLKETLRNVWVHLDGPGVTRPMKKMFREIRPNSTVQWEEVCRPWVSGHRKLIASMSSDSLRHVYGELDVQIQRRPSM
Procedure: The transglutaminase activity of human plasma factor XIIIa was measured spectrophotometrically by a modification of the method of Muszbek, Polgar and Fesus; "Kinetic determination of blood coagulation factor XIII in plasma." Clin Chem 31 (1985) pp. 35-40. This method measures the production of ammonia by linking it through the glutamate dehydrogenase reaction to NADH oxidation which can be monitored by the change in absorption at 340 nm. Factor XIII was activated by incubating defibrinated human plasma (2 ml) and 200 mM CaCl2 (0.1 ml) with 1000 unit/ml bovine thrombin (0.1 ml) at 37° C. After 15 min the reaction was stopped by the addition of 260 antithrombin units of hirudin. The reaction cuvette contained: 2.5 mM dithiothreitol (0.1 ml), 40 mg/ml dephosphorylated β-casein (0.05 ml), 70 mM ethylamine (0.1 ml), 12 mM sodium 2-ketoglutarate (0.1 ml), 4 mM NADH (0.1 ml), 1.2 mM ADP (0.1 ml), 40 unit/ml glutamate dehydrogenase (0.1 ml), 70 mM HEPES buffer pH7.5 (0.25 ml) and this was placed in a spectrophotometer at 20° C. All components were dissolved in 70 mM HEPES buffer pH 7.5 where possible. The reaction was started by the addition of the activated factor XIII (0.2 ml) and monitored at 340 nm. The assay was validated with the use of factor XIII-deficient plasma (Sigma).
Test samples were added in 0.1 ml of the HEPES buffer to the reaction cuvette. […]

factor XIIIa = test: clot solubility assay (fibrin clot in urea); assay type: biochemical, bovine; settings: iodoacetamide 100 μM, lowered absorbance = clot soluble in urea
Procedure: In a first experiment A, the proboscis, anterior and posterior salivary glands of a leech of the species Haementeria ghilianii were homogenised together in a Potter homogeniser in 10 mM Tris HCl, 0.85% w/v NaCl pH7.0 (1 ml), and centrifuged at 13000 rpm. The supernatant was assayed in a clot solubility assay similar to that of Tymiak, Tuttle, Kimball, Wang and Lee "A simple and rapid screen for inhibitors of factor XIIIa". J. Antibiotics 46 (1993) pp. 204-206. In a second experiment B, the proboscis, anterior and posterior salivary glands were dissected from a leech of the species Haementeria ghilianii and homogenised separately in 0.2 ml aliquots of the buffer. The effect was compared with extracts of the proboscis, anterior and posterior salivary glands from two leeches of the species Haementeria officinalis prepared in 0.2 ml buffer. The test samples (30 μl) were added to a solution of 10 mg/ml crude bovine fibrinogen which contains factor XIII (30 μl). The reaction was started by adding 6.25 units/ml bovine thrombin containing 9 mM CaCl2 (40 μl). A clot formed in 15 min when 8M urea (160 μl) was added and left in contact with the clot. After 30 min, the absorbance resulting from the clot's opalescence was read at 405 nm. Lowered absorbance indicates solubility of the clot resulting from inhibition of cross-linking. […] The numerical values quoted in the table are absorbance at 405 nm.

thrombin = thrombin chromogenic substrate assay (S2238); assay type: biochemical; settings: 0.046 μg/ml
Procedure: as §1

Sequence of human factor Xa (P00742 41-179 limits assumed): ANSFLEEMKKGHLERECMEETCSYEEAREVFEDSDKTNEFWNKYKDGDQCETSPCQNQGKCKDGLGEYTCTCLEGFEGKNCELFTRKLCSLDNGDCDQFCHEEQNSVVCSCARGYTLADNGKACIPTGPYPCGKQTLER
Sequence of human factor Xa (P00742 235-488 limits assumed): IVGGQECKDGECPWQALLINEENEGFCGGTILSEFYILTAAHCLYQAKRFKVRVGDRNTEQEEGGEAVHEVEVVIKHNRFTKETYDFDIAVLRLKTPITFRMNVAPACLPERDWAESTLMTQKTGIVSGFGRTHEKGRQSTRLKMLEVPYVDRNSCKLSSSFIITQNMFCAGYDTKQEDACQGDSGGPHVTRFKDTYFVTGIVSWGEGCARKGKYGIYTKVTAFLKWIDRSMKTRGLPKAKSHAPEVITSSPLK

**Q.** For “rTAP: recombinant tick anticoagulant peptide, a known inhibitor of factor Xa (YNRLCIKPRDWIDECDSNEGGERAYFRNGKGGCDSFWICPEDHTGADYYSSYRDCFNACI; ends and bridges not checked; cysteine pairing not given here; UniProt P17726 1-60, looked up)”, which “inhibition of factor Xa” value (human factor Xa) is on record?
**A.** 89.9%

**Q.** What about the “Reaction Rate” value (human factor Xa; control 49.8) of the same molecule?
**A.** 5.53 mAbs/min

**Q.** How did the Change in absorbance ([1]; 77 mM in cuvette) turn out when `O=C(O)CN(CCOCCOCCN(CC(=O)O)CC(=O)O)CC(=O)O` [EGTA] was run?
**A.** 0.024 mAbs/min

**Q.** Which “absorbance at 405 nm, Experiment A” value (factor XIIIa; Tris buffer 0.74) does the source give for `NC(=O)CI` [Iodoacetamide] here?
**A.** 0.26

**Q.** What about the “absorbance at 405 nm, Experiment B” value (factor XIIIa; Tris buffer 0.83) of the same molecule?
**A.** 0.42

**Q.** And the Change in absorbance ([1]; 0.077 mM in cuvette)?
**A.** 0.356 mAbs/min

**Q.** What does the source list for Hirudin?
**A.** inhibitory effect on thrombin (thrombin): 95%; Rate of Reaction (thrombin; control 49.8): 2.63 mAbs/min
